The test system of the assay is MV-4-11 cells. The assay is described as follows: Gene expression microarray analysis (Affymetrix PrimeView) and GSEA. On the set-up: RFU PODN (11730768_x_at) / Fold change /veh PODN (11730768_x_at) / RFU LINC00158 (11744669_a_at) / Fold change /veh LINC00158 (11744669_a_at) / RFU DUSP10 (11751237_a_at) / Fold change /veh DUSP10 (11751237_a_at) / RFU ID3 (11757404_x_at) / Fold change /veh ID3 (11757404_x_at) / RFU PLEKHG5 (11737974_s_at) / Fold change /veh PLEKHG5 (11737974_s_at) / RFU LRRC4B (11730491_at) / Fold change /veh LRRC4B (11730491_at) / RFU GIMAP4 (11747438_a_at) / Fold change /veh GIMAP4 (11747438_a_at) / RFU KRT8 (11758183_x_at) / Fold change /veh KRT8 (11758183_x_at) / RFU CNN1 (11734310_a_at) / Fold change /veh CNN1 (11734310_a_at) / RFU VPS37D (11726825_at) / Fold change /veh VPS37D (11726825_at) / RFU C10orf10 (11716522_x_at) / Fold change /veh C10orf10 (11716522_x_at) / RFU KIR2DL2 /// KIR2DL4 /// KIR2DL5A /// KIR2DL5B /// KIR2DS1 /// KIR2DS2 /// KIR2DS3 /// KIR2DS4 /// KIR3DL3 /// KIR3DL3 /// KIR3DS1 (11738374_at) / Fold change /veh KIR2DL2 /// KIR2DL4 /// KIR2DL5A /// KIR2DL5B /// KIR2DS1 /// KIR2DS2 /// KIR2DS3 /// KIR2DS4 /// KIR3DL3 /// KIR3DL3 /// KIR3DS1 (11738374_at) / RFU C1QL1 (11718748_at) / Fold change /veh C1QL1 (11718748_at) / RFU TMPRSS4 (11747572_a_at) / Fold change /veh TMPRSS4 (11747572_a_at) / RFU HAMP (11756126_x_at) / Fold change /veh HAMP (11756126_x_at) / RFU RNFT2 (11725882_a_at) / Fold change /veh RNFT2 (11725882_a_at) / RFU NR4A2 (11747474_a_at) / Fold change /veh NR4A2 (11747474_a_at) / RFU ABCC12 (11746883_a_at) / Fold change /veh ABCC12 (11746883_a_at) / RFU TMEM136 (11760407_x_at) / Fold change /veh TMEM136 (11760407_x_at) / RFU CLDN22 /// WWC2 (11732394_at) / Fold change /veh CLDN22 /// WWC2 (11732394_at) / RFU HLA-DPB1 (11760878_x_at) / Fold change /veh HLA-DPB1 (11760878_x_at) / RFU SPINT1 (11716480_a_at) / Fold change /veh SPINT1 (11716480_a_at) / RFU GAP43 (11754022_s_at) / Fold change /veh GAP43 (11754022_s_at) / RFU A4GNT (11735810_at) / Fold change /veh A4GNT (11735810_at) / RFU PRB3 (11715151_x_at) / Fold change /veh PRB3 (11715151_x_at) / RFU TUBB4B (11761932_at) / Fold change /veh TUBB4B (11761932_at) / RFU CAPN14 (11732068_a_at) / Fold change /veh CAPN14 (11732068_a_at) / RFU TMCC2 (11721928_a_at) / Fold change /veh TMCC2 (11721928_a_at) / RFU IRGQ (11745062_a_at) / Fold change /veh IRGQ (11745062_a_at) / RFU FAM174B (11720279_a_at) / Fold change /veh FAM174B (11720279_a_at) / RFU TMPRSS4 (11748680_a_at) / Fold change /veh TMPRSS4 (11748680_a_at) / RFU FAM212B (11763350_a_at) / Fold change /veh FAM212B (11763350_a_at) / RFU PLEKHG5 (11743358_a_at) / Fold change /veh PLEKHG5 (11743358_a_at) / RFU ZSCAN30 (11745921_a_at) / Fold change /veh ZSCAN30 (11745921_a_at) / RFU CMKLR1 (11741424_a_at) / Fold change /veh CMKLR1 (11741424_a_at) / RFU LOC101060620 /// MAPK8IP1 (11723275_at) / Fold change /veh LOC101060620 /// MAPK8IP1 (11723275_at) / RFU SPTSSB (11747773_x_at) / Fold change /veh SPTSSB (11747773_x_at) / RFU PRSS12 (11739890_at) / Fold change /veh PRSS12 (11739890_at) / RFU BIN1 (11741810_x_at) / Fold change /veh BIN1 (11741810_x_at) / RFU WNT11 (11732464_a_at) / Fold change /veh WNT11 (11732464_a_at) / RFU C10orf10 (11716521_a_at) / Fold change /veh C10orf10 (11716521_a_at) / RFU C5orf56 (11738089_at) / Fold change /veh C5orf56 (11738089_at) / RFU CYB561 (11721691_x_at) / Fold change /veh CYB561 (11721691_x_at) / RFU ANKRD19P (11752326_a_at) / Fold change /veh ANKRD19P (11752326_a_at) / RFU OR2T12 /// OR2T33 /// OR2T8 (11738714_s_at) / Fold change /veh OR2T12 /// OR2T33 /// OR2T8 (11738714_s_at) / RFU VCAN (11748164_a_at) / Fold change /veh VCAN (11748164_a_at) / RFU JSRP1 (11732532_at) / Fold change /veh JSRP1 (11732532_at) / RFU KRTAP10-11 (11738290_x_at) / Fold change /veh KRTAP10-11 (11738290_x_at) / RFU MYO3A (11730013_a_at) / Fold change /veh MYO3A (11730013_a_at) / RFU EBF3 (11725865_a_at) / Fold change /veh EBF3 (11725865_a_at) / RFU CAMK2N1 (11719241_x_at) / Fold change /veh CAMK2N1 (11719241_x_at) / RFU C5orf56 (11738088_a_at) / Fold change /veh C5orf56 (11738088_a_at) / RFU OLFML3 (11715873_a_at) / Fold change /veh OLFML3 (11715873_a_at) / RFU LOC100653217 /// NTM (11731650_a_at) / Fold change /veh LOC100653217 /// NTM (11731650_a_at) / RFU MAPK11 (11762145_a_at) / Fold change /veh MAPK11 (11762145_a_at) / RFU FIZ1 (11724087_x_at) / Fold change /veh FIZ1 (11724087_x_at) / RFU OASL (11726364_x_at) / Fold change /veh OASL (11726364_x_at) / RFU SOX15 (11748057_x_at) / Fold change /veh SOX15 (11748057_x_at) / RFU CD79A (11719716_a_at) / Fold change /veh CD79A (11719716_a_at) / RFU HIST1H1D (11736915_at) / Fold change /veh HIST1H1D (11736915_at) / RFU CASKIN2 (11723855_a_at) / Fold change /veh CASKIN2 (11723855_a_at) / RFU LOC730098 (11760151_x_at) / Fold change /veh LOC730098 (11760151_x_at) / RFU OR4N2 (11742367_at) / Fold change /veh OR4N2 (11742367_at) / RFU PRRT2 (11749266_a_at) / Fold change /veh PRRT2 (11749266_a_at) / RFU SNX32 (11753110_a_at) / Fold change /veh SNX32 (11753110_a_at) / RFU CDHR5 (11726645_a_at) / Fold change /veh CDHR5 (11726645_a_at) / RFU RCAN1 (11760418_a_at) / Fold change /veh RCAN1 (11760418_a_at) / RFU FAM167A (11723789_a_at) / Fold change /veh FAM167A (11723789_a_at) / RFU FAM26E (11764081_at) / Fold change /veh FAM26E (11764081_at) / RFU ISYNA1 (11749810_s_at) / Fold change /veh ISYNA1 (11749810_s_at) / RFU ACY1 (11761880_at) / Fold change /veh ACY1 (11761880_at) / RFU 11764098_at / Fold change /veh 11764098_at / RFU SAMD14 (11745864_x_at) / Fold change /veh SAMD14 (11745864_x_at) / RFU NPB (11741838_a_at) / Fold change /veh NPB (11741838_a_at) / RFU TMPRSS6 (11731388_a_at) / Fold change /veh TMPRSS6 (11731388_a_at) / RFU KRTAP10-2 (11738614_at) / Fold change /veh KRTAP10-2 (11738614_at) / RFU ARHGAP8 /// PRR5-ARHGAP8 (11727945_x_at) / Fold change /veh ARHGAP8 /// PRR5-ARHGAP8 (11727945_x_at) / RFU KRTAP5-7 /// NADSYN1 (11734609_at) / Fold change /veh KRTAP5-7 /// NADSYN1 (11734609_at) / RFU RASL12 (11751679_a_at) / Fold change /veh RASL12 (11751679_a_at) / RFU CDKN2B (11736163_a_at) / Fold change /veh CDKN2B (11736163_a_at) / RFU PRF1 (11729649_at) / Fold change /veh PRF1 (11729649_at) / RFU, ZNF638 /// ZNF638-IT1 / Fold change vs veh, ZNF638 /// ZNF638-IT1 / RFU, PANK3 / Fold change vs veh, PANK3 / RFU, SH3YL1 / Fold change vs veh, SH3YL1 / RFU, ZEB2 / Fold change vs veh, ZEB2 / RFU, NRIP1 / Fold change vs veh, NRIP1 / RFU, PTTG1IP / Fold change vs veh, PTTG1IP / RFU, CAPN2 / Fold change vs veh, CAPN2 / RFU, MED14 / Fold change vs veh, MED14 / RFU, SNORA58 / Fold change vs veh, SNORA58 / RFU, C1orf63 / Fold change vs veh, C1orf63 / RFU, LRRFIP1 / Fold change vs veh, LRRFIP1 / RFU, NDUFAF7 / Fold change vs veh, NDUFAF7 / RFU, SLC12A2 / Fold change vs veh, SLC12A2 / RFU, IBTK / Fold change vs veh, IBTK / RFU, ESF1 / Fold change vs veh, ESF1 / Fold change vs veh, TMEM50B / RFU, TAOK1 / Fold change vs veh, TAOK1 / RFU, ACBD3 / Fold change vs veh, ACBD3 / RFU, TMA16 / Fold change vs veh, TMA16 / RFU, RWDD3 / Fold change vs veh, RWDD3 / RFU, BCAT1 / Fold change vs veh, BCAT1 / RFU, EDEM3 / Fold change vs veh, EDEM3 / RFU, TMEM33 / Fold change vs veh, TMEM33 / RFU, WDR75 / Fold change vs veh, WDR75 / RFU, AHCTF1 / Fold change vs veh, AHCTF1 / RFU, TFRC / Fold change vs veh, TFRC / RFU, ZDHHC17 / Fold change vs veh, ZDHHC17 / RFU, NOM1 / Fold change vs veh, NOM1 / RFU, ARL8B / Fold change vs veh, ARL8B / RFU, ZBTB11 / Fold change vs veh, ZBTB11 / RFU, TAMM41 / Fold change vs veh, TAMM41 / RFU, KIAA1704 /// LOC100996395 / Fold change vs veh, KIAA1704 /// LOC100996395 / RFU, ING1 / Fold change vs veh, ING1 / RFU, TRMT61B / Fold change vs veh, TRMT61B / RFU, FUBP3 / Fold change vs veh, FUBP3 / RFU, TP53 / Fold change vs veh, TP53 / RFU, TNKS2 / Fold change vs veh, TNKS2 / RFU, ZFP14 / Fold change vs veh, ZFP14 / RFU, ACTR2 / Fold change vs veh, ACTR2 / RFU, PPP3R1 / Fold change vs veh, PPP3R1 / RFU, PIK3R1 / Fold change vs veh, PIK3R1 / RFU, HNRNPA1 / Fold change vs veh, HNRNPA1 / RFU, RNF170 / Fold change vs veh, RNF170 / RFU, ZNF28 / Fold change vs veh, ZNF28 / RFU, RNGTT / Fold change vs veh, RNGTT / RFU, OGT / Fold change vs veh, OGT / RFU, BRD1 / Fold change vs veh, BRD1 / RFU, MARS / Fold change vs veh, MARS / RFU, ZNF655 / Fold change vs veh, ZNF655 / RFU, FAHD1 / Fold change vs veh, FAHD1 / RFU, BDP1 / Fold change vs veh, BDP1 / RFU, LRRCC1 / Fold change vs veh, LRRCC1 / RFU, ARID1A / Fold change vs veh, ARID1A / RFU, ZNF146 / Fold change vs veh, ZNF146 / RFU, ZNF330 / Fold change vs veh, ZNF330 / RFU, GPN3 / Fold change vs veh, GPN3 / RFU, C9orf123 / Fold change vs veh, C9orf123 / RFU, N4BP2L2 / Fold change vs veh, N4BP2L2 / RFU, ARFIP1 / Fold change vs veh, ARFIP1 / RFU, FAM179B / Fold change vs veh, FAM179B / RFU, BCL10 / Fold change vs veh, BCL10 / RFU, UHRF1BP1L / Fold change vs veh, UHRF1BP1L / RFU, BET1 / Fold change vs veh, BET1 / RFU, CNOT2 / Fold change vs veh, CNOT2 / RFU, ZNF268 / Fold change vs veh, ZNF268 / Fold change vs veh, ZNF507 / RFU, DGCR2 / Fold change vs veh, DGCR2 / RFU, WDSUB1 / Fold change vs veh, WDSUB1 / Fold change vs veh, HSP90B1 /// MIR3652 / RFU, ADSS / Fold change vs veh, ADSS / RFU, GK / Fold change vs veh, GK / RFU, ZNF148 / Fold change vs veh, ZNF148 / RFU, TAF9 / Fold change vs veh, TAF9 / RFU, SLC1A5 / Fold change vs veh, SLC1A5 / RFU, SLMO2 / Fold change vs veh, SLMO2 / RFU, ABCC4 / Fold change vs veh, ABCC4 / RFU, LOC101060439 /// RAP1B / Fold change vs veh, LOC101060439 /// RAP1B / RFU, RFX7 / Fold change vs veh, RFX7 / RFU, GTPBP10 / Fold change vs veh, GTPBP10 / RFU, CNEP1R1 / Fold change vs veh, CNEP1R1 / RFU, BIVM-ERCC5 /// ERCC5 / Fold change vs veh, BIVM-ERCC5 /// ERCC5 / RFU, ILF3 / Fold change vs veh, ILF3 / RFU 11762660_at / Fold change /veh 11762660_at / RFU VCAN (11757783_s_at) / Fold change /veh VCAN (11757783_s_at) / RFU DDX43 (11728927_at) / Fold change /veh DDX43 (11728927_at) / RFU KRT8 (11758188_x_at) / Fold change /veh KRT8 (11758188_x_at) / RFU NKD1 (11759106_at) / Fold change /veh NKD1 (11759106_at) / RFU SRD5A1 (11742802_a_at) / Fold change /veh SRD5A1 (11742802_a_at) / RFU TPSAB1 /// TPSB2 (11721975_s_at) / Fold change /veh TPSAB1 /// TPSB2 (11721975_s_at) / RFU GSTM3 (11746129_a_at) / Fold change /veh GSTM3 (11746129_a_at) / RFU IL23R (11737362_x_at) / Fold change /veh IL23R (11737362_x_at) / RFU TMEM51 (11727254_a_at) / Fold change /veh TMEM51 (11727254_a_at) / RFU PIWIL2 (11732686_x_at) / Fold change /veh PIWIL2 (11732686_x_at) / RFU ORM1 (11744905_x_at) / Fold change /veh ORM1 (11744905_x_at) / RFU CCDC152 (11743942_at) / Fold change /veh CCDC152 (11743942_at) / RFU ECM1 (11717891_a_at) / Fold change /veh ECM1 (11717891_a_at) / RFU IL23R (11748794_a_at) / Fold change /veh IL23R (11748794_a_at) / RFU TNFAIP8L3 (11732012_x_at) / Fold change /veh TNFAIP8L3 (11732012_x_at) / RFU MBOAT4 (11741988_at) / Fold change /veh MBOAT4 (11741988_at) / RFU 11764193_at / Fold change /veh 11764193_at / RFU TMEM53 (11763286_at) / Fold change /veh TMEM53 (11763286_at) / RFU MAGEB2 (11727129_at) / Fold change /veh MAGEB2 (11727129_at) / RFU TMEM200A (11744735_a_at) / Fold change /veh TMEM200A (11744735_a_at) / RFU CCDC152 (11751479_a_at) / Fold change /veh CCDC152 (11751479_a_at) / RFU FAM211A (11726209_a_at) / Fold change /veh FAM211A (11726209_a_at) / RFU RGS16 (11746705_a_at) / Fold change /veh RGS16 (11746705_a_at) / RFU VCAN (11755009_s_at) / Fold change /veh VCAN (11755009_s_at) / RFU RHOB (11743442_s_at) / Fold change /veh RHOB (11743442_s_at) / RFU RGS16 (11720943_a_at) / Fold change /veh RGS16 (11720943_a_at) / RFU RGS16 (11720944_at) / Fold change /veh RGS16 (11720944_at) / RFU, VPS4B / Fold change vs veh, VPS4B / RFU, CREB1 / Fold change vs veh, CREB1 / RFU, DNAJC13 / Fold change vs veh, DNAJC13 / RFU, GNAQ / Fold change vs veh, GNAQ / RFU, CDK5R1 / Fold change vs veh, CDK5R1 / RFU, ZRANB3 / Fold change vs veh, ZRANB3 / RFU, CUL4A / Fold change vs veh, CUL4A / RFU, CCNY / Fold change vs veh, CCNY / RFU, UFL1 / Fold change vs veh, UFL1 / RFU, COG3 / Fold change vs veh, COG3 / RFU, DIAPH2 / Fold change vs veh, DIAPH2 / RFU, SKA2 / Fold change vs veh, SKA2 / RFU, AFF3 / Fold change vs veh, AFF3 / RFU, LMF1 / Fold change vs veh, LMF1 / RFU, IPO11 / Fold change vs veh, IPO11 / RFU, DFFB / Fold change vs veh, DFFB / RFU, FOXP1 / Fold change vs veh, FOXP1 / RFU, CARD8 / Fold change vs veh, CARD8 / RFU, STRN3 / Fold change vs veh, STRN3 / RFU, ADK / Fold change vs veh, ADK / RFU, RASSF2 / Fold change vs veh, RASSF2 / RFU, WIPF1 / Fold change vs veh, WIPF1 / RFU, LARP1B / Fold change vs veh, LARP1B / RFU, RASA1 / Fold change vs veh, RASA1 / RFU, RB1 / Fold change vs veh, RB1 / RFU, PPFIA1 / Fold change vs veh, PPFIA1 / RFU, MAT2A / Fold change vs veh, MAT2A / RFU, CCT5 / Fold change vs veh, CCT5 / RFU, WDR92 / Fold change vs veh, WDR92 / RFU, CUX1 / Fold change vs veh, CUX1 / RFU, TTC7A / Fold change vs veh, TTC7A / RFU, TMEM135 / Fold change vs veh, TMEM135 / RFU, DEPTOR / Fold change vs veh, DEPTOR / RFU, CPM / Fold change vs veh, CPM / RFU, DNAJB6 / Fold change vs veh, DNAJB6 / RFU, CACNA2D3 / Fold change vs veh, CACNA2D3 / RFU, DTX4 / Fold change vs veh, DTX4 / RFU, TFCP2 / Fold change vs veh, TFCP2 / RFU, GMCL1 /// GMCL1P1 / Fold change vs veh, GMCL1 /// GMCL1P1 / RFU, AEBP2 / Fold change vs veh, AEBP2 / RFU, SNHG1 /// SNORD22 /// SNORD25 /// SNORD26 /// SNORD27 /// SNORD28 /// SNORD29 /// SNORD31 / Fold change vs veh, SNHG1 /// SNORD22 /// SNORD25 /// SNORD26 /// SNORD27 /// SNORD28 /// SNORD29 /// SNORD31 / Fold change (Aza/veh), C12orf56 (ProbeSet 11735607_a_at) / Fold change (ACY-1035/veh), C12orf56 (ProbeSet 11735607_a_at) / Fold change (Aza/veh), FGFR1OP (ProbeSet 11751329_s_at) / Fold change (ACY-1035/veh), FGFR1OP (ProbeSet 11751329_s_at) / Fold change (Aza/veh), VPS36 (ProbeSet 11739960_a_at) / Fold change (ACY-1035/veh), VPS36 (ProbeSet 11739960_a_at) / RFU SYPL1 (11715823_x_at) / Fold change /veh SYPL1 (11715823_x_at) / RFU IGFBP7 (11715501_s_at) / Fold change /veh IGFBP7 (11715501_s_at) / RFU REEP3 (11722064_at) / Fold change /veh REEP3 (11722064_at) / RFU IGLL1 (11728026_x_at) / Fold change /veh IGLL1 (11728026_x_at): dose or concentration left out as unconfirmed. Conditions: MV-4-11 cells, 48 hours. In kind it is cell-based, human.

As to `Nc1ccc(-c2cccs2)cc1NC(=O)c1ccc2c(c1)cc(C1CC1)n2CCN1CCOCC1` [ACY-1035], the “RFU ACY1 (11761880_at)” value came out at 20.30 RFU.

The values are drawn from PMC5218480 (PLoS ONE, 2017).
